System: sC5b-9
Assay: Phase 2a study: urinary sC5b-9 (MicroVue sC5b-9 Enzyme Immunoassay);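 further: urine from C3 glomerulopathy or IC-MPGN patients, sandwich ELISA capturing sC5b-9 via C9-ring monoclonal with HRP detection read at 450 nm, values raw or normalized to creatinine or albumin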
[1] = Patient A, 100 mg TID, Day 1/0 Hour
[2] = Patient A, 100 mg TID, Day 7/0 Hour
[3] = Patient A, 100 mg TID, Day 15 Taper
[4] = Patient A, 100 mg TID, Day 16 Taper
[5] = Patient A, 100 mg TID, Day 17 Taper
[6] = Patient A, 100 mg TID, Day 21 Taper
[7] = Patient A, 100 mg TID, Follow-Up Day 24
[8] = Patient A, 100 mg TID, Follow-Up Day 28
[9] = Patient A, 100 mg TID, Follow-Up Day 49
[10] = Patient B, 100 mg TID, Day 1/0 Hour
[11] = Patient B, 100 mg TID, Day 7/0 Hour
[12] = Patient B, 100 mg TID, Day 15 Taper
[13] = Patient B, 100 mg TID, Day 16 Taper
[14] = Patient B, 100 mg TID, Day 17 Taper
[15] = Patient B, 100 mg TID, Day 21 Taper
[16] = Patient B, 100 mg TID, Follow-Up Day 24
[17] = Patient B, 100 mg TID, Follow-Up Day 28
[18] = Patient B, 100 mg TID, Follow-Up Day 49
[19] = Patient C, 200 mg TID, Day 1/0 Hour
[20] = Patient C, 200 mg TID, Day 7/0 Hour
[21] = Patient C, 200 mg TID, Day 15 Taper
[22] = Patient C, 200 mg TID, Day 16 Taper
[23] = Patient C, 200 mg TID, Day 17 Taper
[24] = Patient C, 200 mg TID, Day 21 Taper
[25] = Patient C, 200 mg TID, Follow-Up Day 24
[26] = Patient C, 200 mg TID, Follow-Up Day 28
[27] = Patient C, 200 mg TID, Follow-Up Day 49
[28] = Patient C, 200 mg TID, Screen 1
[29] = Patient D, 200 mg TID, Day 1/0 Hour
[30] = Patient D, 200 mg TID, Day 7/0 Hour
[31] = Patient D, 200 mg TID, Day 15 Taper
[32] = Patient D, 200 mg TID, Day 17 Taper

Description: 10 patients with either C3 Glomerulopathy (C3G) or Immune-Complex Membranoproliferative Glomerulonephritis (IC-MPGN) are to be enrolled across two dose groups. […] Inclusion criteria include a clinical diagnosis of C3G (C3 glomerulonephritis [C3GN] or dense deposit disease [DDD], the 2 types of C3G) or idiopathic immune-complex membranoproliferative glomerulonephritis (IC-MPGN) by renal biopsy for at least 3 months prior to dosing, with the pathologic diagnosis verified by review of the renal biopsy by the study central pathologist. Patients must have low C3 levels (<50% of the lower limit of normal) and normal or near-normal C4 levels (>90% of the lower limit of normal).
To measure urinary sC5b-9 production, patient urine samples were tested utilizing the MicroVue sC5b-9 Enzyme Immunoassay for the quantitation of sC5b-9 in urine. […] The samples were tested utilizing the MicroVue sC5b-9 Enzyme Immunoassay for the quantitation of sC5b-9 urine, which is a three-step procedure utilizing a micro-assay plate coated with a mouse monoclonal antibody that binds specifically to the C9 ring of sC5b-9, HRP-conjugated antibodies to antigens of sC5b-9, and a chromogenic substrate. In step 1, standards, controls, and test specimens are added to micro-assay wells pre-coated with an anti-sC5b-9 specific monoclonal antibody. sC5b-9 present in the Standards, Controls, or specimens will bind to the immobilized sC5b-9 monoclonal antibody. After incubation, a wash cycle removes unbound material. […] In step 2, horseradish peroxidase (HRP)-conjugated antibodies to antigens of sC5b-9 are added to each test well. The enzyme conjugated antibodies bind to sC5b-9 that was captured by the monoclonal anti-sC5b-9 bound on the surface of the micro-assay wells. After incubation, a wash cycle removes unbound, excess conjugate. In step 3, a chromogenic enzyme substrate is added to each micro-assay well. The bound HRP-conjugate reacts with the substrate, forming a blue color. After incubation the enzyme reaction is stopped chemically, the color changes to yellow, and the color intensity is measured spectrophotometrically at 450 nm. The color intensity of the reaction mixture is proportional to the concentration of sC5b-9 present in the test specimens, standards, and controls. […] Measurements of urinary biomarkers are typically normalized to urine creatinine or albumin levels to account for variation in biomarker levels due to changes in urinary filtration rate.

## CC(=O)c1nn(CC(=O)N2C[C@H](F)C[C@H]2C(=O)Nc2cccc(Br)n2)c2ccc(-c3cnc(C)nc3)cc12 [Compound 1, (2S,4R)-1-(2-(3-acetyl-5-(2-methylpyrimidin-5-yl)-1H-indazol-1-yl)acetyl)-N-(6-bromopyridin-2-yl)-4-fluoropyrrolidine-2-carboxamide]
[1]
  sC5b-9/ALB: 38 ng/mg
  sC5b-9/Cr: 9.9 µg/mmol
Patient A, 100 mg TID, Day 1 predose
  Urine sC5b-9: 81.2 ng/mL
Patient A, 100 mg TID, Day 4
  Urine sC5b-9: 84.2 ng/mL
  sC5b-9/ALB: 48 ng/mg
  sC5b-9/Cr: 10.5 µg/mmol
Patient A, 100 mg TID, Day 7
  Urine sC5b-9: 70.4 ng/mL
[2]
  sC5b-9/ALB: 46 ng/mg
  sC5b-9/Cr: 10.7 µg/mmol
Patient A, 100 mg TID, Day 10
  Urine sC5b-9: 52.0 ng/mL
  sC5b-9/ALB: 37 ng/mg
  sC5b-9/Cr: 8.4 µg/mmol
[3]
  Urine sC5b-9: 56.9 ng/mL
  sC5b-9/ALB: 54 ng/mg
  sC5b-9/Cr: 7.8 µg/mmol
[4]
  Urine sC5b-9: 66.2 ng/mL
  sC5b-9/ALB: 62 ng/mg
  sC5b-9/Cr: 8.8 µg/mmol
[5]
  Urine sC5b-9: 84.4 ng/mL
  sC5b-9/ALB: 74 ng/mg
  sC5b-9/Cr: 8.5 µg/mmol
[6]
  Urine sC5b-9: 85.8 ng/mL
  sC5b-9/ALB: 70 ng/mg
  sC5b-9/Cr: 9.9 µg/mmol
[7]
  Urine sC5b-9: 95.0 ng/mL
  sC5b-9/ALB: 69 ng/mg
  sC5b-9/Cr: 9.5 µg/mmol
[8]
  Urine sC5b-9: 79.7 ng/mL
  sC5b-9/ALB: 61 ng/mg
  sC5b-9/Cr: 8.0 µg/mmol
[9]
  Urine sC5b-9: 57.5 ng/mL
  sC5b-9/ALB: 92 ng/mg
  sC5b-9/Cr: 13.4 µg/mmol
Patient A, 100 mg TID, Screen
  Urine sC5b-9: 76.3 ng/mL
  sC5b-9/ALB: 40 ng/mg
  sC5b-9/Cr: 9.2 µg/mmol
[10]
  sC5b-9/ALB: 1500 ng/mg
  sC5b-9/Cr: 866 µg/mmol
Patient B, 100 mg TID, Day 1 predose
  Urine sC5b-9: 5280 ng/mL
Patient B, 100 mg TID, Day 4
  Urine sC5b-9: 2139 ng/mL
  sC5b-9/ALB: 637 ng/mg
  sC5b-9/Cr: 168 µg/mmol
Patient B, 100 mg TID, Day 7
  Urine sC5b-9: 2266 ng/mL
[11]
  sC5b-9/ALB: 624 ng/mg
  sC5b-9/Cr: 155 µg/mmol
Patient B, 100 mg TID, Day 10
  Urine sC5b-9: 1073 ng/mL
  sC5b-9/ALB: 563 ng/mg
  sC5b-9/Cr: 143 µg/mmol
Patient B, 100 mg TID, Day 14
  Urine sC5b-9: 4010 ng/mL
  sC5b-9/ALB: 911 ng/mg
  sC5b-9/Cr: 240 µg/mmol
[12]
  Urine sC5b-9: 3334 ng/mL
  sC5b-9/ALB: 929 ng/mg
  sC5b-9/Cr: 303 µg/mmol
[13]
  Urine sC5b-9: 4784 ng/mL
  sC5b-9/ALB: 1154 ng/mg
  sC5b-9/Cr: 380 µg/mmol
[14]
  Urine sC5b-9: 2693 ng/mL
  sC5b-9/ALB: 907 ng/mg
  sC5b-9/Cr: 238 µg/mmol
[15]
  Urine sC5b-9: 2469 ng/mL
  sC5b-9/ALB: 821 ng/mg
  sC5b-9/Cr: 305 µg/mmol
[16]
  Urine sC5b-9: 3958 ng/mL
  sC5b-9/ALB: 1380 ng/mg
  sC5b-9/Cr: 649 µg/mmol
[17]
  Urine sC5b-9: 2376 ng/mL
  sC5b-9/ALB: 882 ng/mg
  sC5b-9/Cr: 335 µg/mmol
[18]
  Urine sC5b-9: 14132 ng/mL
  sC5b-9/ALB: 6312 ng/mg
  sC5b-9/Cr: 883 µg/mmol
Patient B, 100 mg TID, Screen
  Urine sC5b-9: 2598 ng/mL
  sC5b-9/ALB: 724 ng/mg
  sC5b-9/Cr: 351 µg/mmol
[19]
  sC5b-9/ALB: 203 ng/mg
  sC5b-9/Cr: 11.9 µg/mmol
Patient C, 200 mg TID, Day 1 predose
  Urine sC5b-9: 21.5 ng/mL
Patient C, 200 mg TID, Day 4
  Urine sC5b-9: <8.8 ng/mL
  sC5b-9/ALB: 173 ng/mg
  sC5b-9/Cr: 4.63 µg/mmol
Patient C, 200 mg TID, Day 7
  Urine sC5b-9: <8.8 ng/mL
[20]
  sC5b-9/ALB: 110 ng/mg
  sC5b-9/Cr: 2.38 µg/mmol
Patient C, 200 mg TID, Day 10
  Urine sC5b-9: <8.8 ng/mL
  sC5b-9/ALB: 160 ng/mg
  sC5b-9/Cr: 5.50 µg/mmol
Patient C, 200 mg TID, Day 14
  Urine sC5b-9: <8.8 ng/mL
  sC5b-9/ALB: 220 ng/mg
  sC5b-9/Cr: 6.77 µg/mmol
[21]
  Urine sC5b-9: <8.8 ng/mL
  sC5b-9/ALB: 131 ng/mg
  sC5b-9/Cr: 5.87 µg/mmol
[22]
  Urine sC5b-9: <8.8 ng/mL
  sC5b-9/ALB: 176 ng/mg
  sC5b-9/Cr: 4.63 µg/mmol
[23]
  Urine sC5b-9: <8.8 ng/mL
  sC5b-9/ALB: 126 ng/mg
  sC5b-9/Cr: 4.00 µg/mmol
[24]
  Urine sC5b-9: 10.3 ng/mL
  sC5b-9/ALB: 158 ng/mg
  sC5b-9/Cr: 3.67 µg/mmol
[25]
  Urine sC5b-9: 11.0 ng/mL
  sC5b-9/ALB: 186 ng/mg
  sC5b-9/Cr: 6.11 µg/mmol
[26]
  Urine sC5b-9: 21.2 ng/mL
  sC5b-9/ALB: 154 ng/mg
  sC5b-9/Cr: 7.32 µg/mmol
[27]
  Urine sC5b-9: 14.0 ng/mL
  sC5b-9/ALB: 149 ng/mg
  sC5b-9/Cr: 3.04 µg/mmol
Patient C, 200 mg TID, Screen
  Urine sC5b-9: 32.1 ng/mL
  sC5b-9/ALB: 387 ng/mg
  sC5b-9/Cr: 16.9 µg/mmol
[28]
  Urine sC5b-9: 57.4 ng/mL
  sC5b-9/ALB: 422 ng/mg
  sC5b-9/Cr: 52.2 µg/mmol
[29]
  sC5b-9/ALB: 22 ng/mg
  sC5b-9/Cr: 4.8 µg/mmol
Patient D, 200 mg TID, Day 1 predose
  Urine sC5b-9: 28.1 ng/mL
Patient D, 200 mg TID, Day 4
  Urine sC5b-9: 18.5 ng/mL
  sC5b-9/ALB: 15 ng/mg
  sC5b-9/Cr: 4.1 µg/mmol
Patient D, 200 mg TID, Day 7
  Urine sC5b-9: 15.8 ng/mL
[30]
  sC5b-9/ALB: 43 ng/mg
  sC5b-9/Cr: 14.3 µg/mmol
Patient D, 200 mg TID, Day 10
  Urine sC5b-9: 8.9 ng/mL
  sC5b-9/ALB: 14 ng/mg
  sC5b-9/Cr: 8.9 µg/mmol
Patient D, 200 mg TID, Day 14
  Urine sC5b-9: 12.0 ng/mL
  sC5b-9/ALB: 13 ng/mg
  sC5b-9/Cr: 3.9 µg/mmol
[31]
  Urine sC5b-9: 20.3 ng/mL
  sC5b-9/ALB: 10 ng/mg
  sC5b-9/Cr: 4.8 µg/mmol
[32]
  Urine sC5b-9: 15.3 ng/mL
  sC5b-9/ALB: 9 ng/mg
  sC5b-9/Cr: 5.3 µg/mmol

Source: US20210215714A1, “COMPLEMENT ALTERNATIVE PATHWAY-ASSOCIATED NEPHROPATHY BIOMARKERS” (Achillion Pharmaceuticals, Inc., priority 2018, published 2021)
